# Assay results taken from paper PMC6261607, “Novel high–throughput myofibroblast assays identify agonists with therapeutic potential in pulmonary fibrosis that act via EP2 and EP4 receptors” (PLoS ONE, 2018).
# Read-outs that look alike come from different tables or passages of the source.
# Legend:
# [1] = tested on: normal human lung fibroblasts (NHLF); assay: Phenotypic high-content assay (HCA) of TGF–β1–induced fibroblast–to–myofibroblast differentiation; assay type: cell-based; settings: for IC50: read-out: HCA IC50; for inhibition at 10 µM: read-out: Effect HCA at 10 µM [% inhibition]
# Description: (§1) The plate was washed 3 times with starvation medium, e.g. fibroblast basal medium (FBM, Lonza) supplemented with 0.1% faf BSA, 100 units / ml of penicillin and 100 μg / ml of streptomycin and 250 ng / ml amphotericin B, and then starved for 24 h in 30 μl volume. NHLF were differentiated into myofibroblasts by incubation with 5 ng / ml TGF–β1 (from a stock of 20 μg / ml in 4 mM HCl, 1 mg / ml BSA) for 48 h. Compounds were prepared as 5x stocks in starvation medium and added to the starved cells to a final 1x concentration concomitant with TGF–β1 addition. The final DMSO concentration in the assay was 0.6% in all wells. 48 h after TGF–β1 addition, the medium was removed and the cells were fixed in methanol for 10 min at room temperature (RT). After fixation, cells were washed 3 times with 1 x PBS and either stored at 4°C for up to 3 days or further processed. […] Images were acquired on the Opera Phenix confocal high–content screening system (Perkin Elmer) using the 20–x water immersion lens.
# (§2) DAPI stained nuclei were used to identify cells. α–SMA and FN regions were then identified and mapped to the corresponding nuclei for background correction, cell segmentation and cell feature computation to identify, classify and weigh over 400 features per cell. The computed features (S1 Table) comprise, but are not limited to, granularity, intensity, texture, area, shape and solidity of a cell in both α–SMA–and FN–expressing regions. The 0% compound effect (5 ng / ml TGF–β1) and the 100% compound effect (0 ng / ml TGF–β1) controls, were used to train and validate a support vector machine (SVM), a supervised learning model with associated learning algorithm that, once successfully validated, was applied to every cell in every well of the assayed microtiter plate. The SVM allowed autonomous weighting and classification of the characteristics and thus enabled the classifier to decide which characteristics were most relevant for the differentiation of the cell types. […] The classification of each cell was aggregated to a cell type ratio per well, represented as the computed percentage effect value per well indicative of the degree of myofibroblast differentiation. E.g. 100% equals complete myofibroblast differentiation, 0% indicates a pure fibroblast population without any signs of differentiation.
# [2] = tested on: normal human lung fibroblasts (NHLF); assay: Nuclear count in the HCA, standard assay; assay type: cell-based; settings: read-out: Nuclear count IC50
# Description: as §1, §2
# NHLF cells = assay: RealTime–Glo MT viability assay
# Description: The effect of compounds on cell viability was assessed by quantifying the relative metabolic activity of cells using the non–lytic luminescence–based RealTime–Glo™ MT cell viability assay (Promega) according to the manufacturer’s instructions.
# [3] = Homo sapiens, Fibroblast, 48 h, NHLF, 5 ng/ml TGF–β1 for 48 h, compound added with TGF–β1, mean ± SD
# [4] = Homo sapiens, Fibroblast, 10 µM compound, 5 ng/ml TGF–β1, 48 h
# [5] = Homo sapiens, Fibroblast, 48 h, standard HCA, NHLF, 5 ng/ml TGF–β1, 48 h
# [6] = Homo sapiens, Fibroblast, NHLF, 5 ng/ml TGF–β1 for 48 h, compound added with TGF–β1, mean ± SD
# [7] = Homo sapiens, Fibroblast, standard HCA, NHLF, 5 ng/ml TGF–β1, 48 h
SMILES,"IC50 [1, 3] [µM]","inhibition at 10 µM [1, 4] [%]","IC50 [2, 5] [µM]",Effect on viability at 10 µM [% reduction] (NHLF cells; 10 µM compound),also measured
Clc1cc(Cl)c(OCC#CI)cc1Cl [Haloprogin],1.3,77,4.5,61 % reduction,–
CC(=O)O[C@H]1C[C@H](O[C@H]2[C@@H](O)C[C@H](O[C@H]3[C@@H](O)C[C@H](O[C@H]4CC[C@@]5(C)[C@H](CC[C@@H]6[C@@H]5C[C@@H](O)[C@]5(C)[C@@H](C7=CC(=O)OC7)CC[C@]65O)C4)O[C@@H]3C)O[C@@H]2C)O[C@H](C)[C@H]1O[C@@H]1O[C@H](CO)[C@@H](O)[C@H](O)[C@H]1O [Lanatoside C],–,100,–,–,"IC50 [1, 6]: 0.035 µM; IC50 [2, 7]: > 25 µM; Effect on viability at 10 µM [% reduction] (NHLF cells; human, 10 µM): 19 % reduction"
C[C@@H]1O[C@@H](O[C@H]2C[C@@H](O)[C@]3(CO)[C@H]4[C@H](O)C[C@]5(C)[C@@H](C6=CC(=O)OC6)CC[C@]5(O)[C@@H]4CC[C@]3(O)C2)[C@H](O)[C@H](O)[C@H]1O [Ouabain],0.012,100,> 25,15 % reduction,–
C[C@@H]1O[C@@H](O[C@@H]2C=C3CC[C@@H]4[C@H](CC[C@]5(C)[C@@H](c6ccc(=O)oc6)CC[C@]45O)[C@@]3(C)CC2)[C@H](O)[C@H](O)[C@H]1O [Proscillaridin A],–,101,–,12 % reduction,"IC50 [1, 6]: 0.001 µM; IC50 [2, 7]: > 25 µM"
CCSc1ccc2c(c1)N(CCCN1CCN(C)CC1)c1ccccc1S2.O=C(O)CC(O)C(=O)O.O=C(O)CC(O)C(=O)O [Thiethylperazine dimalate],–,–,–,–,"Effect HCA at 10 µM [% inhibition] ([1]; 10 µM compound, 5 ng/ml TGF–β1, 48 h): 76 % inhibition; IC50 ([1]; NHLF, 5 ng/ml TGF–β1 for 48 h, compound added with TGF–β1, mean ± SD): 8.5 µM; IC50 ([2]; standard HCA, NHLF, 5 ng/ml TGF–β1, 48 h): 13 µM; Effect on viability at 10 µM [% reduction] (NHLF cells): 34 % reduction"
C=C(NC(=O)C(=C)NC(=O)c1csc(C2=N[C@@H]3c4csc(n4)[C@H]4NC(=O)c5csc(n5)[C@H]([C@](C)(O)[C@@H](C)O)NC(=O)[C@H]5CSC(=N5)/C(=C/C)NC(=O)[C@H]([C@@H](C)O)NC(=O)c5csc(n5)[C@]3(CC2)NC(=O)[C@H](C)NC(=O)C(=C)NC(=O)[C@H](C)NC(=O)[C@H]([C@@H](C)CC)N[C@@H]2C=Cc3c([C@H](C)O)cc(nc3[C@H]2O)C(=O)O[C@@H]4C)n1)C(N)=O [Thiostrepton],–,–,–,–11 % reduction,"inhibition at 10 µM ([1]; Homo sapiens, Fibroblast, 48 h): 85%; IC50 ([1]; Homo sapiens, Fibroblast, 48 h): 2.2 µM; IC50 ([2]; Homo sapiens, Fibroblast, 48 h): 7.6 µM"
CC[C@@]1(O)C(=O)OCc2c1cc1n(c2=O)Cc2cc3c(CN(C)C)c(O)ccc3nc2-1 [Topotecan],0.97,88,> 25,–,"Effect on viability at 10 µM [% reduction] (NHLF cells; human, 10 µM): 8 % reduction"
